Entries after “also recorded” stand apart in the source; their conditions may differ. Read-outs that look alike come from different tables or passages of the source.
Key:
PPAR α = biological target: T1, PPAR α (Homo sapiens, UniProt Q07869); test: Dual-luciferase reporter gene assay, PPAR α transcriptional activity in 293T cells; assay type: cell-based; conditions: for EC50: 293T cells, luciferase reporter, 24 hours incubation; for transcription activity on PPAR α relative to compound A: 293T reporter assay
T1 construct: PPAR α-LBD plasmids; expressed in transfected cells; host or cells: 293T cells (ATCC)
T1 sequence (Q07869 239-466 limits assumed): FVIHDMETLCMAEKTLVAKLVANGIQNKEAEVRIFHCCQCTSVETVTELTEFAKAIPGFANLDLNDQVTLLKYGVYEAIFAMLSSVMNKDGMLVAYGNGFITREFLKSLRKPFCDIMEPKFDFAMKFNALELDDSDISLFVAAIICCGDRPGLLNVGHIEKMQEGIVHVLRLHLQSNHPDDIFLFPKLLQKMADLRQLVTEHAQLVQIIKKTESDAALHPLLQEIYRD
Method: The inventors used the PPAR-α, α-LBD, γ and γ-LBD plasmids to detect the impacts of bavachinin on transcription activities of these two PPAR subtype. […] The positive agonists or the test compounds were diluted in fresh media, and then added into the cells. After incubating for another 24 hours, the cells were harvested to detect luciferase activity.
(§1) pCMX-Gal-mPPAR γ LBD plasmids, Gal4 reporter vector MH100×4-TK-Luc recombinant plasmids and renilla luciferase internal reference plasmids; PPAR α-LBD plasmids; PPAR γ plasmids; PPAR α plasmids.
When the cells grew to a density of 50 to 80% after seeded in plate overnight, it's good to carry out the transfection.
The final concentration of positive agonists was 20 μmol/L).
(§2) After 24 hours, cells were washed twice with PBS to remove the remaining cell culture medium; 65 μL lysis buffer was added into each well and oscillated by the shaker for 15 minutes until cell lysis was complete. Finally the cell lysate was transferred into a 1.5 mL centrifuge tube; The cell lysate was centrifuged at 5000 rpm for 5 minutes and then 10 μL supernatant was taken to a new centrifuge tube for testing.
(§3) We conducted the luciferase reporter assay using Dual-Luciferase Reporter Assay System (Promega, USA). The transfection efficiency was normalized using the internal reference renilla luciferase activity. All transfection experiments were independently repeated for at least three times, with each experimental group having at least two deputy holes.
(§4) The Bio-Tek, Synergy HT multifunctional microplate reader was used to detect the fluorescence intensity of firefly and renilla. After normalizing via the internal reference renilla luciferase activity, the relative luciferase activity was expressed by the ratio of the fluorescence intensity of firefly luciferase and renilla luciferase.
(§5) Data were expressed as mean±standard error of mean (SEM). One-way ANOVA was used to analyze statistically differences between groups with LSD test for multiple comparisons using SPSS 16.0. The EC50 values were calculated using GraphPad Prism 5.0. A P value≤0.05 was regarded as statistically significant different.

[1] = tested on: PPAR α/γ target genes in HepG2 cells; test: Real-time PCR of PPAR α/γ target genes in HepG2 cells; assay type: cell-based; conditions: 24 hours, 25 μM (stated for compound A); for expression of PPAR α/γ target genes (GLUT4, CD36, LPL, Fasn, ACO): β-actin reference
Method: Used Real-time fluorescence quantitative PCR (Real-time PCR) to detect how the compounds A, B and C regulate the expression of PPAR γ/α-related target genes in liver HepG2 cells.
HepG2 cells was grown in Dulbecco's modified Eagle's medium (DMEM, HyClone) with 10% fetal bovine serum (FBS, HyClone) and 1% Penicillin/Streptomycin (Gibco) at 37° C. and 5% CO2. HepG2 cells at logarithmic growth phase were plated in 12-well plates with the cell density was 5×10^4 cells/mL, and then were treated by compound A for 24 hours. Quantitative PCR analysis was performed using β-actin as an endogenous reference.
When the density of HepG2 cells was grown about 60%, compound A (dissolved in DMSO as a stock solution) diluted with complete medium was added into cells. The final concentration was 25 μM (μmol/L).
After 24 hours, total RNA of treated HepG2 cells was isolated using TRIzol reagent (Takara, Japan) according to the manual.
The total RNA was reversely transcribed to cDNA applying the reverse transcription kit (Thermo, Mass., USA). We established 20 μL reverse transcription reaction system according to Table 2. The reaction system was mixed and placed at room temperature (25° C.) for 5 minutes, incubated at 42° C. for 1 hour, incubated at 70° C. for 5 minutes. cDNA was stored at −20° C.
All primers were designed by the Prime 3.0 software. Briefly, after an initial denaturation at 95° C. for 10 minutes, the cDNA was amplified by 40 cycles of PCR (95° C., 15 seconds; 60° C., 60 seconds). All experiments were repeated at least three times independently.

db/db mice = test: Blood glucose and glucose tolerance in db/db mice; assay type: in vivo; conditions: for reduction of fasting blood glucose compared with vehicle: after 6 days treatment, intragastric
Method: Mice were fasted 8 hours before subjected to a dose of 1 g glucose per kg body weight. Blood was taken from tail and measured at 0, 15, 30, 60 and 90 minutes. The data were expressed with means±SE, n=9 for each group.
The db/db mice with leptin receptor mutation begin to show the symptoms of obesity, hyperlipidemia, insulin resistance, hyperglycemia and others at 4 weeks. This is an ideal kind of mice model for obese diabetic mice.
The db/db mice were kept in polycarbonate cages under regulated temperature (22-23° C.) and controlled humidity (50%-60%) with 12-hour light/12-hour dark cycle. All the mice were allowed to adapt to the standard housing conditions. Mice and food were weighed regularly to investigate the changes in body weight and food intake.
During the experimental period, the eight-week old db/db mice were treated with water and a normal standard cylindrical diet. […] An intraperitoneal glucose tolerance test (IPGTT) was carried out after one week of treatment. Mice were fasted 8 hours before subjected to a dose of 1 g glucose per kg body weight. Blood was taken from tail at 0, 15, 30, 60, and 90 minutes. After 11 days of treatment, 0.75 U/kg body weight of insulin was injected intraperitoneally to perform intraperitoneal insulin tolerance test (IPITT). Blood was taken from tail at 0, 15, 30, 60, 90 and 120 minutes. After 20 days, all the db/db mice were anaesthetized by pentobarbital sodium after 8-hour fast. Blood and tissues were collected and stored at −80° C. for the further analysis.

3T3-L1 cells = test: 3T3-L1 preadipocyte differentiation (oil red O staining); assay type: cell-based; conditions: for adipocyte differentiation activity relative to compound A: 25 μM vs compound A at 5 μM
Method: 3T3-L1 fibroblast cell line is widely used for adipocyte differentiation models. […] For adipocyte differentiation, 3T3-L1 cells were seeded into 12-well plate to full confluence for 2 days and then incubated with completed medium containing 10 μg/mL human insulin (Sigma-Aldrich), 1 μM dexamethasone (Sigma-Aldrich) and the test compounds at 37° C. and 7.5% CO2. After 2 days of induction, the medium was replaced with a maintenance medium (completed medium including 10 μg/mL insulin and the test compounds) for additional 2 days (Day 0-Day 2). Thereafter, the medium was refreshed with fresh medium with the test compounds for 4 days (Day 2-Day 6). The test compounds dissolved in dimethylsulfoxide (DMSO) was diluted by the completed medium (final DMSO concentration, 0.1%) at indicated concentration. rosiglitazone was used as a positive compound. The 3T3-L1 cells were washed with PBS twice, fixed with 10% formalin at room temperature for 10 minutes and then stained with oil red O (Sigma-Aldrich, St. Louis, Mo.) at 37° C. for 30 minutes. The pictures were taken using an Olympus microscope (Tokyo, Japan).

[2] = tested on: diet-induced obese (dio) C57BL/6J mice; test: Lipid disorders in diet-induced obese (dio) mice; conditions: for effect on food intake / reduction of serum triglyceride (TG) levels compared to HFD group / effect on body weight: 3-week treatment; for reduction of serum triglyceride (TG) levels compared to HFD group: compound A 2 g per kg HFD; for effect on body weight: vs HFD group
Method: For the therapy study, the six-week old female C57BL/6J mice were fed with high-fat diet (HFD, 60% of calories from fat) for 12 weeks to induce obesity and insulin resistance (DIO). The mice were divided into 3 groups according to body weight and fasting blood glucose (n=9, 7, 7, 7). […] After 21 days of dosing, we took blood from heart of anaesthetized fasted 10-hour mice. Tissues were collected and stored at −80° C.
Serum was used for all the analysis of blood parameters.

PPAR γ = biological target: T2, PPAR γ (Mus musculus, UniProt P37238); test: Dual-luciferase reporter gene assay, PPAR γ transcriptional activity in 293T cells; assay type: cell-based; conditions: for transcription activity on PPAR γ relative to compound A: 293T reporter assay
T2 construct: pCMX-Gal-mPPAR γ LBD plasmids; expressed in transfected cells; host or cells: 293T cells (ATCC)
T2 sequence (P37238 238-503 limits assumed): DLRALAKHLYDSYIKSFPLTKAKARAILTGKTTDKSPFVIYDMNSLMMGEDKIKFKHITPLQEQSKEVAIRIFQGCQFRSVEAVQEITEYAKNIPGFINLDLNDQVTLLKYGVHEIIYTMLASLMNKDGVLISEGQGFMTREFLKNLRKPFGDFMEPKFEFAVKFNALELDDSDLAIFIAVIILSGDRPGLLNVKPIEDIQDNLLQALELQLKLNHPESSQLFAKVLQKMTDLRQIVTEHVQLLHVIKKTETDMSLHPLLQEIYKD
Method: Reporter gene assay was used to detect the impacts of the compounds A, B and C on the transcriptional activities of PPAR γ and PPAR α. The inventors used the PPAR-α, α-LBD, γ and γ-LBD plasmids to detect the impacts of bavachinin on transcription activities of these two PPAR subtype. All the transfections were added to 293T cells (ATCC) overnight and then removed. The positive agonists or the test compounds were diluted in fresh media, and then added into the cells. After incubating for another 24 hours, the cells were harvested to detect luciferase activity.
293T cells were cultured in Dulbecco's modified Eagle's medium (DMEM) with 10% fetal bovine serum and 1% Penicillin/Streptomycin anti-DMEM high glucose medium at 37° C. and 5% CO2. 293T cells in log phase were seeded into 48-well plate with the cell density of 1×10^5˜2×10^5 cells/mL.
as §1
When the cells grew to a density of 50 to 80% after seeded in plate overnight, it's good to carry out the transfection. All the transfections, which included 10 μg of total plasmids and 15 μL FuGENE-HD transfection reagent per mL of DMEM, were placed at room temperature for 15 minutes and then added to 293T cells (ATCC) overnight and then removed.
After incubating overnight, the compound A or B or C or positive PPAR γ/α agonists rosiglitazone (as the specific agonistic ligand of PPAR γ) or WY14643 (as the specific agonistic ligand of PPAR α) with different concentrations diluted by complete medium (2, 5, 10, 25, 50 μmol/L) were added into cells. The final concentration of positive agonists was 20 μmol/L).
as §2, §3, §4, §5

[3] = 100 mg/kg/d stated for compound A
[4] = 293T cells, luciferase reporter, 24 hours incubation, read-out: EC50 (μM) PPAR γ

| SMILES | expression of PPAR α/γ themselves [1] | expression of PPAR α/γ target genes (GLUT4, CD36, LPL, Fasn, ACO) [1] | reduction of fasting blood glucose compared with vehicle (db/db mice; [3]) | effect on food intake [2] | reduction of serum triglyceride (TG) levels compared to HFD group [2] | effect on body weight [2] | EC50 (PPAR α; read-out: EC50 (μM) PPAR α) | transcription activity on PPAR α relative to compound A (PPAR α) | adipocyte differentiation activity relative to compound A (3T3-L1 cells; 3T3-L1 cells) | EC50 (PPAR γ; [4]) | transcription activity on PPAR γ relative to compound A (PPAR γ) | other results |
| --- | --- | --- | --- | --- | --- | --- | --- | --- | --- | --- | --- | --- |
| COc1cc2c(cc1CC=C(C)C)C(=O)C[C@@H](c1ccc(O)cc1)O2 [compound A, bavachinin] | did not effect | significantly increased | about 20% | without affecting; also recorded: did not affect | around 23% | without affecting; also recorded: did not increase | – | – | – | – | – | EC50 (PPAR α; EC50 (μM) PPAR α): 17.3 µM; PPAR α transactivation compared with full agonist WY14643 (PPAR α; WY14643 final concentration 20 μmol/L): more transactivation; glucose tolerance (IPGTT) (db/db mice; 100 mg/kg/d, 1 g/kg glucose after 8 hours fast): improved; 3T3-L1 adipocyte differentiation (3T3-L1 cells; 1 μM, with insulin and dexamethasone, 6 days, oil red O): induced 3T3-L1 cell differentiation and lipid droplets formation; 3T3-L1 adipocyte differentiation (3T3-L1 cells; 10 μM, with insulin and dexamethasone, 6 days, oil red O): almost fully differentiated; 3T3-L1 adipocyte differentiation (3T3-L1 cells; 25 μM, with insulin and dexamethasone (FIG. 5C)): induced to differentiate into adipocytes; potency on adipocyte differentiation relative to rosiglitazone (3T3-L1 cells; 3T3-L1 cells): as potent as rosiglitazone; serum TG levels in contrast to HFD group ([2]; FIG. 6D): significantly reduced; EC50 (PPAR γ): 8.6 µM; PPAR γ transactivation compared with rosiglitazone (ROS) (PPAR γ; compound at 25 μM vs rosiglitazone at 20 μM): nearly equal to PPAR γ agonist rosiglitazone (ROS) at 20 μM |
| CC(=O)Oc1ccc(C2CC(=O)c3cc(CC=C(C)C)c(OC(C)=O)cc3O2)cc1 (stereo not drawn) [compound B] | did not effect | significantly increased | about 10% | without affecting | 20% | without affecting | 28.5 µM | less than that of compound A | nearly equal to the activity of compound A at 5 μM | 18.8 µM | less than that of compound A | – |
| COc1cc2c(cc1CC=C(C)C)C(=O)CC(c1ccc(OC(C)=O)cc1)O2 (stereo not drawn) [compound C] | did not effect | significantly increased | ~8% | without affecting | 12% | without affecting | 12.9 µM | less than that of compound A | nearly equal to the activity of compound A at 5 μM | 12.3 µM | less than that of compound A | – |
| CN(CCOc1ccc(CC2SC(=O)NC2=O)cc1)c1ccccn1 (stereo not drawn) [rosiglitazone, reference compound] | – | – | – | – | – | – | – | – | – | – | – | reduction of fasting blood glucose compared with vehicle (db/db mice; rosiglitazone 5 mg/kg/d): 5% |

Source: US10034853B2, “PPAR α/γ dual agonist and its application” (Shanghai University of Traditional Chinese Medicine, priority 2013, dated 2018)
